The target of one experiment is dopamine D-2 receptor (Rattus norvegicus, UniProt P61169). Kind of experiment: biochemical. It counts as binding. On the procedure: Homogenized rat caudate was the source of the D-2 receptors. […] The molar affinity of the compound for the receptor binding site was calculated by the same method used for the D-1 receptor assay, assuming a competitive interaction between the compound and the radiolabeled ligand.

For experiment [1], the system named is dopamine D-1 receptor. The settings on record: for Intrinsic Activity (adenylate cyclase assay): dopamine = 100, goldfish retina or rat striatum; for pEC50: read-out: EC50 (agonist activity in adenylate cyclase assay), tissue from goldfish retina or rat striatum.
Method: In order to determine agonist activity, cell-free tissue homogenates are incubated in an ionic buffer solution containing ATP and the compound being evaluated. The tissue was obtained from either goldfish retina or rat striatum.
Experiment [2] addresses dopamine D-1 receptor (Rattus norvegicus, UniProt P18901). Briefly: biochemical. The settings on record: D-1 Ki, rat caudate, [125I]SCH-23982.
From the text: The compounds compete with the radiolabeled ligand for occupancy of the receptors and the molar potency of each compound was quantified.
The Ki values are inversely proportional to the affinity of the compound for the receptor.
Setting [3] is: rat caudate, [125I]-p-aminophenylethyl spiroperidol, read-out: D-2 Ki.

These results are taken from patent US5621133A (priority 1995, dated 1997).

Structures are written as SMILES. pEC50, pKi: −log10 of the molar value. Counter-ions that a name gives are not always drawn. Like-named read-outs stand apart in the source and are kept apart here. Bounds are passed on as bounds.

Chain of dopamine D-2 receptor (P61169 whole entry): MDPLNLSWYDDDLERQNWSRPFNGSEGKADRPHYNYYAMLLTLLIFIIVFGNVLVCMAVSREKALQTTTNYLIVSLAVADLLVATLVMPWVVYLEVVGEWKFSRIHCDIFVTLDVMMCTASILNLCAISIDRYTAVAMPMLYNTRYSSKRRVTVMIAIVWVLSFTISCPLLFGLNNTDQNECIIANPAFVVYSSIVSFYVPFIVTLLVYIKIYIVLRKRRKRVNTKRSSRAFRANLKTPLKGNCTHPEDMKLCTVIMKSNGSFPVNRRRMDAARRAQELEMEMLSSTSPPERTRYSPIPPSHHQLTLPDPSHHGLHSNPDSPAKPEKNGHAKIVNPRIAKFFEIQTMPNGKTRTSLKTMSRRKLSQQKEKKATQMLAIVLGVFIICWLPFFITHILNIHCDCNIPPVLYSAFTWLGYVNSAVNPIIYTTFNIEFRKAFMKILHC
Chain of dopamine D-1 receptor (Rattus norvegicus, UniProt P18901) (P18901 whole entry): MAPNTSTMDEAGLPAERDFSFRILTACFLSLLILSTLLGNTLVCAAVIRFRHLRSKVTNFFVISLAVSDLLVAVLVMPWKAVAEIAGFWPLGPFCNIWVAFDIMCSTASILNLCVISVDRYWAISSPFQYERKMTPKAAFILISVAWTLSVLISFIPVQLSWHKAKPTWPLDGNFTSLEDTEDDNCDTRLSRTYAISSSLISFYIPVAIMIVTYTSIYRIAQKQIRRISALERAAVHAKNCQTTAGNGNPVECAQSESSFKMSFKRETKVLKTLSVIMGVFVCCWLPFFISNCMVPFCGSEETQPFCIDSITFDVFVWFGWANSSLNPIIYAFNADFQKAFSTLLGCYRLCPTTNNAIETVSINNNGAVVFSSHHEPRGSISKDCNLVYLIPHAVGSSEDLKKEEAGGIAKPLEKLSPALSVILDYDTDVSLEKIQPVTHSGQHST

In the case of `CC(C)(C)[C@H]1Cc2c(ccc(O)c2O)[C@@H](CN)O1` (relative stereo) [Example 48, [1,3-cis]1-Aminomethyl 3-t-butyl-5,6-dihydroxy-3,4-dihydro-1H-2-benzopyran Hydrochloride], the pKi at dopamine D-2 receptor (setting [3]) is 4.89. Besides, the “Intrinsic Activity (adenylate cyclase assay)” value (“Intrinsic Activity” below) in the experiment on dopamine D-1 receptor [1] worked out at 112. Take `NC[C@H]1O[C@@H](c2ccccc2)Cc2c1ccc(O)c2O` (relative stereo) [Example 49]: the pKi on dopamine D-2 receptor (setting [3]) is 6.00. For the compound `NC[C@H]1O[C@@H](C2CCCCC2)Cc2c1ccc(O)c2O` (relative stereo) [Example 50], the pKi at dopamine D-2 receptor (D-2 Ki) was 5.92. Regarding `C=CCCCC[C@@H]1Cc2c(ccc(O)c2O)[C@H](CN)O1` (relative stereo) [Example 66], at dopamine D-2 receptor (setting [3]), the pKi is 6.19. Further, in the experiment on dopamine D-1 receptor [1], the “Intrinsic Activity” value was 84.

As for `NC[C@@H]1O[C@H](c2cccc(O)c2)Cc2c1ccc(O)c2O` (relative stereo) [Example 70], the pKi at dopamine D-2 receptor (setting [3]) is 6.19.

`NC[C@@H]1O[C@H](C(c2ccccc2)c2ccccc2)Cc2c1ccc(O)c2O` (relative stereo) [Example 71]: the pKi at dopamine D-2 receptor (setting [3]) is 5.55. Turning to `NC[C@@H]1O[C@H](C2CCCCCCC2)Cc2c1ccc(O)c2O` (relative stereo) [Example 76], the pKi at dopamine D-2 receptor (setting [3]) is 6.36. Still for that read-out and setting: the value for `CC(C)(C)[C@H]1Cc2c(ccc(O)c2O)[C@@H](CN)O1` (relative stereo) [Example 100] was 4.27. On to `C=CC[C@H]1Cc2c(ccc(O)c2O)[C@@H](CN)O1` (relative stereo) [Example 101], for which, in the experiment on dopamine D-1 receptor [1], the “Intrinsic Activity” value is 119.

Take `NC[C@H]1O[C@@H](C23CC4CC(CC(C4)C2)C3)Cc2c1cc(F)c(O)c2O` (relative stereo) [Example 106]: the pKi on dopamine D-2 receptor (setting [3]) was below 5.00. Moreover, in the experiment with dopamine D-1 receptor [1], the “Intrinsic Activity” value is on record as 65.

On to `NC[C@@H]1O[C@H](C23CC4CC(CC(C4)C2)C3)Cc2c(O)c(O)cc(Br)c21` (relative stereo) [Example 107, 1-Aminomethyl-8-bromo-adamantyl-5,6-dihydroxy-3,4-dihydro-1H-2-benzopyran Hydrobromide], for which the pKi was 5.60 at dopamine D-1 receptor [2] and below 5.00 on dopamine D-2 receptor (setting [3]). Regarding `C#CC[C@H]1Cc2c(ccc(O)c2O)[C@@H](CN)O1` (relative stereo) [Example 110, [1,3-cis]1-Aminomethyl-5,6-dihydroxy-3-(3'-prop-1'-ynyl)-3,4-dihydro-1H-2-benzopyran Hydrochloride], the negative logarithm of the Ki (pKi) at dopamine D-2 receptor (setting [3]) is 5.96. As to `CNC[C@H]1O[C@@H](C2CCCCC2)Cc2c1ccc(O)c2O` (relative stereo) [Example 111, [1,3-cis]3-Cyclohexyl-5,6-dihydroxy-1-methylaminomethyl-3,4-dihydro-1H-2-benzopyran Hydrochloride], the pKi at dopamine D-2 receptor (setting [3]) was 6.14. In the case of `C#CCN(C)C[C@H]1O[C@@H](C2CCCCC2)Cc2c1ccc(O)c2O` (relative stereo) [Example 119], the pKi on dopamine D-2 receptor (setting [3]) was below 5.00. Regarding `C=CCN(C)C[C@H]1O[C@@H](C2CCCCC2)Cc2c1ccc(O)c2O` (relative stereo) [Example 120], the pKi on dopamine D-2 receptor (setting [3]) is 5.52. For the compound `C=CCN(C)C[C@H]1O[C@@H](CCCCCC)Cc2c1ccc(O)c2O` (relative stereo) [Example 121], in the experiment with dopamine D-1 receptor [1], the “Intrinsic Activity” value is given as 51 and the pEC50 was 4.68. With `CCCCC[C@H]1Cc2c(ccc(O)c2O)[C@@H](CNC)O1` (relative stereo) [Example 144], the pKi on dopamine D-2 receptor (setting [3]) was 7.04. Also, in the experiment on dopamine D-1 receptor [1], the “Intrinsic Activity” value is on record as 107. Take `CN(C)C[C@H]1O[C@@H](CC2CCCCC2)Cc2c1ccc(O)c2O` (relative stereo) [Example 148A]: the figures for the pKi on dopamine D-1 receptor [2] and on dopamine D-2 receptor (setting [3]) were 6.15 and 5.59, respectively. As for `Br.N[C@@H]1CCc2cc(O)c(O)c3c2[C@H]1C[C@H](c1ccccc1)C3` (relative stereo) [Example 182, [1R*,8S*,9aR*]1-Amino-5,6-dihydroxy-8-phenyl-2,3,7,8,9,9a-hexahydro-phenalene Hydrobromide], on dopamine D-2 receptor (setting [3]), the pKi is 5.66. In the experiment with dopamine D-1 receptor [1], the “Intrinsic Activity” value was determined as 65. For `Br.N[C@H]1CCc2cc(O)c(O)c3c2[C@H]1C[C@H](c1ccccc1)C3` (relative stereo) [Example 183, [1S*,8S*,9aR*]1-Amino-5,6-dihydroxy-8-phenyl-2,3,7,8,9,9a-hexahydrophenalene Hydrobromide], the pKi on dopamine D-2 receptor (setting [3]) is below 5.00. Further, in the experiment on dopamine D-1 receptor [1], the “Intrinsic Activity” value was 56.

For `CC(C)(C)[C@@H]1Cc2c(ccc(O)c2O)[C@H](CN)C1` (relative stereo) [Example 195], the pKi on dopamine D-1 receptor [2] is 6.60. For the same compound, in the experiment with dopamine D-1 receptor [1], the “Intrinsic Activity” value was 73 and the negative-log EC50 (pEC50) is 6.40.

With `COC(=O)CCC(=O)Oc1ccc2c(c1OC(=O)CCC(=O)OC)CC(c1ccccc1)C=C2CN` (stereo not drawn) [Example 19], the results for the pKi on dopamine D-1 receptor [2] and at dopamine D-2 receptor (setting [3]) were 6.22 and below 5.00, respectively.

Take `NCC1=CC(c2ccccc2)Cc2c1ccc(OC(=O)NCc1ccccc1)c2OC(=O)NCc1ccccc1` (stereo not drawn) [Example 30]: the pKi is below 5.00 at dopamine D-1 receptor [2] and 4.49 at dopamine D-2 receptor (D-2 Ki, rat caudate, [125I]-p-aminophenylethyl spiroperidol). `NC[C@@H]1O[C@H](c2ccccc2)Cc2c1ccc(O)c2O` [Example 54]: the pKi at dopamine D-2 receptor (setting [3]) is 6.04. Regarding `COc1ccc(CC2Cc3c(ccc(O)c3O)C(CN)O2)cc1` (stereo not drawn) [Example 83], the pKi on dopamine D-2 receptor (setting [3]) is 5.35. For `NCC1OC(c2ccccc2)Cc2c1ccc(O)c2O` (stereo not drawn) [Example 96], the pKi on dopamine D-2 receptor (setting [3]) is 6.06. For `CC(C)(C)C1Cc2c(ccc(O)c2O)C(CN)O1` (stereo not drawn) [Example 102], on dopamine D-2 receptor (setting [3]), the pKi is below 5.00. The “Intrinsic Activity” value with dopamine D-1 receptor [1] is given as 113. Taken in the same sequence, the figures for `NC[C@@H]1O[C@H](C23CC4CC(CC(C4)C2)C3)Cc2c1cc(F)c(O)c2O` [Example 103] were 5.70 and 88. Take `Oc1ccc2c(c1O)C[C@@H](c1ccccc1)O[C@H]2[C@@H]1CCCN1` [Example 124]: the pKi at dopamine D-1 receptor [2] was 5.72; on dopamine D-2 receptor (setting [3]), 6.33.

Regarding `NCC1=CC2(CCCCCC2)Cc2c1ccc(O)c2O` [Example 188, 1'-Aminomethyl-5,6'-dihydroxyspiro[cycloheptane-1,3'-(3',4'-dihydro-2'-H-naphthalene)]hydrobromide], the negative-log Ki (pKi) on dopamine D-1 receptor [2] is 5.70; at dopamine D-2 receptor (setting [3]), 5.15.

The compound `CCCC1(CCC)Cc2c(ccc(O)c2O)C(CN)C1` (stereo not drawn) [Example 198] gave a pKi at dopamine D-1 receptor [2] of 5.43. Turning to `Oc1ccc2c(c1O)CC(c1ccccc1)C1=C2CNCC1` (stereo not drawn) [Example 200], the pKi at dopamine D-2 receptor (setting [3]) was 5.48. In the experiment on dopamine D-1 receptor [1], the “Intrinsic Activity” value was 120. Taken in the same sequence, the figures for `Oc1ccc2c(c1O)C[C@@H](c1ccccc1)C1=C2CNCC1` [Example 201] were 5.82 and 110.

Consider `Oc1ccc2c(c1O)CC(C1CCCCC1)C1=C2CNCC1` (stereo not drawn) [Example 202], for which the pKi at dopamine D-2 receptor (setting [3]) is 5.80. The “Intrinsic Activity” value in the experiment on dopamine D-1 receptor [1] stood at 84.

For the compound `Oc1ccc2c(c1O)CC1(CCCCCCC1)C1=C2CNCC1` [Example 207], the pKi on dopamine D-2 receptor (setting [3]) was 5.92. Moreover, the “Intrinsic Activity” value with dopamine D-1 receptor [1] amounted to 64.

As to `CC(=O)NCC1=CC(c2ccccc2)Cc2c1ccc(O)c2O` (stereo not drawn) [Example 213, 1-Acetylaminomethyl-3-phenyl-5,6-dihydroxy-3,4-dihydronaphthalene], the “Intrinsic Activity” value in the experiment on dopamine D-1 receptor [1] is recorded as 70. In the case of `Oc1ccc2c(c1O)CC(c1ccccc1)C1=C2CNCC1` (stereo not drawn) [Example 239], the pKi on dopamine D-2 receptor (setting [3]) is 5.70. In the experiment with dopamine D-1 receptor [1], the “Intrinsic Activity” value is 103. On to `Oc1ccc2c(c1O)CC1(CCCCCC1)C1CCNCC21` (stereo not drawn) [Example 252], for which the “Intrinsic Activity” value in the experiment with dopamine D-1 receptor [1] is 49.

As usually defined, the pKi is the Ki on a negative log10 scale, so that one unit is a factor of ten. The pEC50 is the EC50 on a negative log10 scale, so that one unit is a factor of ten.
